Tests used:
Assay type in all cases: in vivo
[1] = tested on: directly sowed Oryza sativa; assay: Test Example 3: effect on crop by application to foliage (Wagner pot, water depth 0.1-0.5 cm); conditions: Nineteenth Table; application to foliage; application herbicide amount 320 g/ha
How it was run: (§1)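 Foliar spray, 14-day-old plants, emulsion diluted to target g/ha; rated 3 wk post-application, 0–5 scale (0 ≤5%, 5 ≥90% herbicidal ratio). Greenhouse 25–30 °C, alluvial soil.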

Cyperus difformis = assay: Test Example 3: herbicidal effect by application to foliage (Wagner pot, water depth 0.1-0.5 cm); conditions: Nineteenth Table; application to foliage; application herbicide amount 320 g/ha
How it was run: as §1

Leptochloa chinensis = assay: as above; conditions: Nineteenth Table; application to foliage; application herbicide amount 320 g/ha
How it was run: as §1

[2] = tested on: Echinochloa crus-galli var. crus-galli; assay: as above; conditions: Nineteenth Table; application to foliage; application herbicide amount 320 g/ha
How it was run: as §1

Scirpus juncoides = assay: Test Example 2: herbicidal activity, application during weed generation in submerged conditions; conditions: Eighteenth Table; application herbicide amount 320 g/ha
How it was run: (§2)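 Seeds were sown together in alluvial soil kept under 4 cm of water and grown at 25 °C to 30 °C. Once plants reached the one- to two-leaf stage, the diluted emulsion was applied to the water surface at a predetermined g/ha amount, and effects were rated 0–5 after three weeks.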

[3] = tested on: Echinochloa oryzacola Vasing.; assay: as above; conditions: Eighteenth Table; application herbicide amount 320 g/ha
How it was run: as §2

Monochoria vaginalis = assay: as above; conditions: Eighteenth Table; application herbicide amount 320 g/ha
How it was run: as §2

Row | Structure (SMILES) | b (effect on crop grade) [1] | E (herbicidal effect grade) (Cyperus difformis) | D (herbicidal effect grade) (Leptochloa chinensis) | H (herbicidal effect grade) [2] | B (Scirpus juncoides) herbicidal ratio grade (Scirpus juncoides) | A (Echinochloa oryzicola Vasing.) herbicidal ratio grade [3] | C (Monochoria vaginalis) herbicidal ratio grade (Monochoria vaginalis)
1 | Cn1nnnc1NC(=O)c1ccc(C(F)(F)F)n2c(Cl)nnc12 [2-008] | 0 (Herbicidal ratio of 5% or less (almost no effect)) | 4 (Herbicidal ratio of 70% or more and less than 90%) | 5 (Herbicidal ratio of 90% or more (almost completely withered)) | 4 (Herbicidal ratio of 70% or more and less than 90%) | 2 (Herbicidal ratio of 20% or more and less than 40%) | 3 (Herbicidal ratio of 40% or more and less than 70%) | 3 (Herbicidal ratio of 40% or more and less than 70%)
2 | Cn1nnnc1NC(=O)c1ccc(C(F)(F)F)n2c(Br)nnc12 [2-009] | 4 (Herbicidal ratio of 70% or more and less than 90%) | 3 (Herbicidal ratio of 40% or more and less than 70%) | 4 (Herbicidal ratio of 70% or more and less than 90%) | 5 (Herbicidal ratio of 90% or more (almost completely withered)) | 2 (Herbicidal ratio of 20% or more and less than 40%) | 3 (Herbicidal ratio of 40% or more and less than 70%) | 3 (Herbicidal ratio of 40% or more and less than 70%)
3 | COc1ccc(-c2nnc3c(C(=O)Nc4nnnn4C)ccc(C(F)(F)F)n23)cc1 [2-011] | 5 (Herbicidal ratio of 90% or more (almost completely withered)) | 5 (Herbicidal ratio of 90% or more (almost completely withered)) | 5 (Herbicidal ratio of 90% or more (almost completely withered)) | 5 (Herbicidal ratio of 90% or more (almost completely withered)) | 3 (Herbicidal ratio of 40% or more and less than 70%) | 4 (Herbicidal ratio of 70% or more and less than 90%) | 4 (Herbicidal ratio of 70% or more and less than 90%)
4 | Cn1nnnc1NC(=O)c1ccc(C(F)(F)F)n2c(-c3ccc(Cl)cc3)nnc12 [2-012] | 2 (Herbicidal ratio of 20% or more and less than 40%) | 5 (Herbicidal ratio of 90% or more (almost completely withered)) | 5 (Herbicidal ratio of 90% or more (almost completely withered)) | 4 (Herbicidal ratio of 70% or more and less than 90%) | 5 (Herbicidal ratio of 90% or more (almost completely withered)) | 4 (Herbicidal ratio of 70% or more and less than 90%) | 5 (Herbicidal ratio of 90% or more (almost completely withered))
5 | CSc1nnc2c(C(=O)Nc3nnnn3C)ccc(C(F)(F)F)n12 [2-013] | 5 (Herbicidal ratio of 90% or more (almost completely withered)) | 5 (Herbicidal ratio of 90% or more (almost completely withered)) | 5 (Herbicidal ratio of 90% or more (almost completely withered)) | 5 (Herbicidal ratio of 90% or more (almost completely withered)) | 3 (Herbicidal ratio of 40% or more and less than 70%) | 5 (Herbicidal ratio of 90% or more (almost completely withered)) | 2 (Herbicidal ratio of 20% or more and less than 40%)
6 | COCCOCc1nnc2c(C(=O)Nc3nnnn3C)ccc(C(F)(F)F)n12 [2-014] | 5 (Herbicidal ratio of 90% or more (almost completely withered)) | 5 (Herbicidal ratio of 90% or more (almost completely withered)) | 5 (Herbicidal ratio of 90% or more (almost completely withered)) | 5 (Herbicidal ratio of 90% or more (almost completely withered)) | 5 (Herbicidal ratio of 90% or more (almost completely withered)) | 5 (Herbicidal ratio of 90% or more (almost completely withered)) | 5 (Herbicidal ratio of 90% or more (almost completely withered))
